Assay results taken from PubChem BioAssay AID1963975 (Molecular Pharmacology Branch, DTP, NCI, 2024).

Test system: 624824-186-R-J2-PDC multicell spheroids, viability
Test: Anticancer human tumor 624824-186-R-J2-PDC patient-derived colon adenocarcinoma cell line growth inhibition [PI3K]
Conditions: for IC50: curve of first compound; for viability, T/C: stronger effect = lower value
Excerpt: Combinatorial screen of targeted agents with the PI3K inhibitors inavolisib, alpelisib, duvelisib, and copanlisib in multi-cell type tumor spheroids
A high-throughput screen of multi-cell type tumor spheroids was designed to identify active combinations of targeted small molecules and PI3K pathway inhibitors. Complex spheroids include a stromal component modeled by human endothelial cells (HUVEC) and fibroblasts modeled by human mesenchymal stem cells (MSCs). The concentration ranges selected for each drug and investigational agent were based upon clinically achievable concentrations if the clinical Cmax of the agent was known.
Compounds. The drugs and investigational agents: inavolisib (NSC800729), alpelisib (NSC765974), duvelisib (NSC772469), copanlisib (NSC816437), ipatasertib (NSC767898), afuresertib (NSC778305), talazoparib (NSC767125), sapanisertib (NSC764658), selumetinib (NSC741078), tovorafenib (DAY101, NSC766906), vemurafenib (NSC761431), ravoxertinib (NSC781343), sotorasib (NSC818433), MRTX1133 (NSC 836407), abemaciclib (NSC 768073), palbociclib (NSC758247), venetoclax (NSC 766270), SY5609 (NSC837396), enzalutamide (NSC755605), and darolutamide (NSC825331), were obtained from the National Cancer Institute (NCI) Developmental Therapeutics Program Chemical Repository. The FDA-approved anticancer drug set is available from the NCI Developmental Therapeutics Program. […] The stock solutions were prepared in dimethyl sulfoxide (DMSO, Sigma-Aldrich, St. Louis, MO, cat. D2650) at 800-fold the tested concentration and stored at -70 degrees C prior to their use. All drugs and investigational agents were tested over a range starting from a high concentration at or near the clinical Cmax and decreasing in half-log increments. If the clinical Cmax for an agent had not been determined, the highest concentration tested was 10 microM.
Cell Culture. All cells were maintained in an incubator at 37 degrees C and 5% CO2 with 95% humidity. The PDC lines were cultured according to standard operating procedures established by the NCI PDMR (https://pdmr.cancer.gov/sops/default.htm). All PDCs were thawed and cultured in Matrigel-coated flasks prepared with a working solution of 1X Ham's F-12 nutrient mix, without supplementation (Invitrogen, Waltham, MA, cat. 11765054), 100 U/mL penicillin-streptomycin (Invitrogen, cat. 15140122), and 2.5% Matrigel (Corning Inc., Corning, NY, cat. 354248) for the first three passages. The 354836-022-R-J1-PDC, 475296-252-R-J1-PDC, and 997726-040-R-J2-PDC lines were cultured in 6A media, which includes advanced DMEM/F-12 (Thermo Fisher Scientific, cat. 12634028), 10 mM HEPES (Thermo Fisher Scientific, cat. 15630080), 1X GlutaMAX supplement (Thermo Fisher Scientific, cat. 35050061), 0.1 mg/mL primocin (InvivoGen, San Diego, CA, cat. ant-pm-2), 10% defined fetal bovine serum, heat inactivated (HyClone Laboratories Inc., Logan, UT, cat. SH30070.03HI), 50% L-WRN conditioned media (ATCC, cat. CRL-3276), 1.25 mM N-Acetyl-L-cysteine (Sigma-Aldrich, cat. A9165), 10 mM nicotinamide (Sigma-Aldrich, cat. N0636), 1X B-27 supplement (Thermo Fisher Scientific, cat. 17504044), 1X N-2 supplement (Thermo Fisher Scientific, cat. 17502048), and 10 microM Y-27632 dihydrochloride (Tocris Bioscience, Bristol, United Kingdom, cat. 1254). The 624824-186-R-J2-PDC line was cultured in 6C/Colon 1B media, which includes all 6A media components plus 50 ng/mL human EGF recombinant protein (Thermo Fisher Scientific, cat. PHG0311). […]
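Also: spheroids exposed to agents for 7 days before viability read.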
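For viability, T/C in this document: 100% = DMSO vehicle treated spheroids.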

Structure (SMILES): CNC(=O)c1ccc(N2C(=S)N(c3ccc(C#N)c(C(F)(F)F)c3)C(=O)C2(C)C)cc1F + CC(Nc1ccc2c(c1)OCCn1cc(N3C(=O)OCC3C(F)F)nc1-2)C(N)=O
- IC50 (second compound 0.00316 µM): > 10 µM
- IC50 (second compound 0.01 µM): > 10 µM
- IC50 (second compound 0.0316 µM): > 10 µM
- IC50 (second compound 0.1 µM): > 10 µM
- IC50 (second compound 0.316 µM): > 10 µM
- IC50 (second compound 1 µM): > 10 µM
- viability, T/C (second compound 0.00316 µM, first compound 0.0316 µM): 90.2%
- viability, T/C (second compound 0.00316 µM, first compound 0.1 µM): 90.7%
- viability, T/C (second compound 0.00316 µM, first compound 0.316 µM): 107%
- viability, T/C (second compound 0.00316 µM, first compound 1 µM): 96.3%
- viability, T/C (second compound 0.00316 µM, first compound 3.16 µM): 134%
- viability, T/C (second compound 0.00316 µM, first compound 10 µM): 121%
- viability, T/C (second compound 0.01 µM, first compound 0.0316 µM): 88.3%
- viability, T/C (second compound 0.01 µM, first compound 0.1 µM): 107%
- viability, T/C (second compound 0.01 µM, first compound 0.316 µM): 88.5%
- viability, T/C (second compound 0.01 µM, first compound 1 µM): 86.4%
- viability, T/C (second compound 0.01 µM, first compound 3.16 µM): 124%
- viability, T/C (second compound 0.01 µM, first compound 10 µM): 109%
- viability, T/C (second compound 0.0316 µM, first compound 0.0316 µM): 75.5%
- viability, T/C (second compound 0.0316 µM, first compound 0.1 µM): 77.3%
- viability, T/C (second compound 0.0316 µM, first compound 0.316 µM): 89.5%
- viability, T/C (second compound 0.0316 µM, first compound 1 µM): 80.5%
- viability, T/C (second compound 0.0316 µM, first compound 3.16 µM): 102%
- viability, T/C (second compound 0.0316 µM, first compound 10 µM): 98.3%
- viability, T/C (second compound 0.1 µM, first compound 0.0316 µM): 72.3%
- viability, T/C (second compound 0.1 µM, first compound 0.1 µM): 66%
- viability, T/C (second compound 0.1 µM, first compound 0.316 µM): 84.8%
- viability, T/C (second compound 0.1 µM, first compound 1 µM): 67.8%
- viability, T/C (second compound 0.1 µM, first compound 3.16 µM): 78%
- viability, T/C (second compound 0.1 µM, first compound 10 µM): 102%
- viability, T/C (second compound 0.316 µM, first compound 0.0316 µM): 78%
- viability, T/C (second compound 0.316 µM, first compound 0.1 µM): 72.3%
- viability, T/C (second compound 0.316 µM, first compound 0.316 µM): 88.5%
- viability, T/C (second compound 0.316 µM, first compound 1 µM): 76.9%
- viability, T/C (second compound 0.316 µM, first compound 3.16 µM): 104%
- viability, T/C (second compound 0.316 µM, first compound 10 µM): 98.7%
- viability, T/C (second compound 1 µM, first compound 0.0316 µM): 69%
- viability, T/C (second compound 1 µM, first compound 0.1 µM): 78%
- viability, T/C (second compound 1 µM, first compound 0.316 µM): 89.3%
- viability, T/C (second compound 1 µM, first compound 1 µM): 87.5%
- viability, T/C (second compound 1 µM, first compound 3.16 µM): 95.2%
- viability, T/C (second compound 1 µM, first compound 10 µM): 93.7%

Structure (SMILES): Cn1cnc2c(F)c(Nc3ccc(Br)cc3Cl)c(C(=O)NOCCO)cc21 + CC(Nc1ccc2c(c1)OCCn1cc(N3C(=O)OCC3C(F)F)nc1-2)C(N)=O
- IC50 (second compound 0.00316 µM): > 3 µM
- IC50 (second compound 0.01 µM): > 3 µM
- IC50 (second compound 0.0316 µM): > 3 µM
- IC50 (second compound 0.1 µM): > 3 µM
- IC50 (second compound 0.316 µM): 2.93 µM
- IC50 (second compound 1 µM): 0.669 µM
- viability, T/C (second compound 0.00316 µM, first compound 0.00949 µM): 89.3%
- viability, T/C (second compound 0.00316 µM, first compound 0.03 µM): 76.8%
- viability, T/C (second compound 0.00316 µM, first compound 0.0949 µM): 76%
- viability, T/C (second compound 0.00316 µM, first compound 0.3 µM): 74.8%
- viability, T/C (second compound 0.00316 µM, first compound 0.949 µM): 87.8%
- viability, T/C (second compound 0.00316 µM, first compound 3 µM): 78.7%
- viability, T/C (second compound 0.01 µM, first compound 0.00949 µM): 87.2%
- viability, T/C (second compound 0.01 µM, first compound 0.03 µM): 71.2%
- viability, T/C (second compound 0.01 µM, first compound 0.0949 µM): 81.9%
- viability, T/C (second compound 0.01 µM, first compound 0.3 µM): 70.9%
- viability, T/C (second compound 0.01 µM, first compound 0.949 µM): 89.6%
- viability, T/C (second compound 0.01 µM, first compound 3 µM): 81.8%
- viability, T/C (second compound 0.0316 µM, first compound 0.00949 µM): 72.1%
- viability, T/C (second compound 0.0316 µM, first compound 0.03 µM): 66.2%
- viability, T/C (second compound 0.0316 µM, first compound 0.0949 µM): 75.7%
- viability, T/C (second compound 0.0316 µM, first compound 0.3 µM): 77.4%
- viability, T/C (second compound 0.0316 µM, first compound 0.949 µM): 85.8%
- viability, T/C (second compound 0.0316 µM, first compound 3 µM): 67.1%
- viability, T/C (second compound 0.1 µM, first compound 0.00949 µM): 83.3%
- viability, T/C (second compound 0.1 µM, first compound 0.03 µM): 68.2%
- viability, T/C (second compound 0.1 µM, first compound 0.0949 µM): 61.1%
- viability, T/C (second compound 0.1 µM, first compound 0.3 µM): 84.2%
- viability, T/C (second compound 0.1 µM, first compound 0.949 µM): 67.9%
- viability, T/C (second compound 0.1 µM, first compound 3 µM): 78.8%
- viability, T/C (second compound 0.316 µM, first compound 0.00949 µM): 102%
- viability, T/C (second compound 0.316 µM, first compound 0.03 µM): 68.1%
- viability, T/C (second compound 0.316 µM, first compound 0.0949 µM): 74%
- viability, T/C (second compound 0.316 µM, first compound 0.3 µM): 68.6%
- viability, T/C (second compound 0.316 µM, first compound 0.949 µM): 60.2%
- viability, T/C (second compound 0.316 µM, first compound 3 µM): 50.1%
- viability, T/C (second compound 1 µM, first compound 0.00949 µM): 68.2%
- viability, T/C (second compound 1 µM, first compound 0.03 µM): 68.8%
- viability, T/C (second compound 1 µM, first compound 0.0949 µM): 66.3%
- viability, T/C (second compound 1 µM, first compound 0.3 µM): 59.1%
- viability, T/C (second compound 1 µM, first compound 0.949 µM): 46%
- viability, T/C (second compound 1 µM, first compound 3 µM): 29.5%
